Series [1] addresses T1, Xanthine dehydrogenase/oxidase (Bos taurus, UniProt P80457). The series can be described thus: Inhibition of bovine milk xanthine-oxidase using xanthine as substrate after 5 mins by spectrophotometric method.
For series [2], the target named is T1, Xanthine dehydrogenase/oxidase. Put plainly: Mixed-type inhibition of bovine milk xanthine oxidase assessed as enzyme-inhibitor complex using varying levels of xanthine as substrate by Line-weaver burk plot analysis.
Series [3] has the same target. The series can be described thus: Mixed-type inhibition of bovine milk xanthine oxidase assessed as enzyme-substrate-inhibitor complex using varying levels of xanthine as substrate by Line-weaver burk plot analysis.
For series [4] the target is unchanged. The series can be described thus: Inhibition of bovine milk xanthine-oxidase up to 10 uM using xanthine as substrate after 5 mins by spectrophotometric method. The note with it: cattle.

T1 sequence (P80457 whole entry): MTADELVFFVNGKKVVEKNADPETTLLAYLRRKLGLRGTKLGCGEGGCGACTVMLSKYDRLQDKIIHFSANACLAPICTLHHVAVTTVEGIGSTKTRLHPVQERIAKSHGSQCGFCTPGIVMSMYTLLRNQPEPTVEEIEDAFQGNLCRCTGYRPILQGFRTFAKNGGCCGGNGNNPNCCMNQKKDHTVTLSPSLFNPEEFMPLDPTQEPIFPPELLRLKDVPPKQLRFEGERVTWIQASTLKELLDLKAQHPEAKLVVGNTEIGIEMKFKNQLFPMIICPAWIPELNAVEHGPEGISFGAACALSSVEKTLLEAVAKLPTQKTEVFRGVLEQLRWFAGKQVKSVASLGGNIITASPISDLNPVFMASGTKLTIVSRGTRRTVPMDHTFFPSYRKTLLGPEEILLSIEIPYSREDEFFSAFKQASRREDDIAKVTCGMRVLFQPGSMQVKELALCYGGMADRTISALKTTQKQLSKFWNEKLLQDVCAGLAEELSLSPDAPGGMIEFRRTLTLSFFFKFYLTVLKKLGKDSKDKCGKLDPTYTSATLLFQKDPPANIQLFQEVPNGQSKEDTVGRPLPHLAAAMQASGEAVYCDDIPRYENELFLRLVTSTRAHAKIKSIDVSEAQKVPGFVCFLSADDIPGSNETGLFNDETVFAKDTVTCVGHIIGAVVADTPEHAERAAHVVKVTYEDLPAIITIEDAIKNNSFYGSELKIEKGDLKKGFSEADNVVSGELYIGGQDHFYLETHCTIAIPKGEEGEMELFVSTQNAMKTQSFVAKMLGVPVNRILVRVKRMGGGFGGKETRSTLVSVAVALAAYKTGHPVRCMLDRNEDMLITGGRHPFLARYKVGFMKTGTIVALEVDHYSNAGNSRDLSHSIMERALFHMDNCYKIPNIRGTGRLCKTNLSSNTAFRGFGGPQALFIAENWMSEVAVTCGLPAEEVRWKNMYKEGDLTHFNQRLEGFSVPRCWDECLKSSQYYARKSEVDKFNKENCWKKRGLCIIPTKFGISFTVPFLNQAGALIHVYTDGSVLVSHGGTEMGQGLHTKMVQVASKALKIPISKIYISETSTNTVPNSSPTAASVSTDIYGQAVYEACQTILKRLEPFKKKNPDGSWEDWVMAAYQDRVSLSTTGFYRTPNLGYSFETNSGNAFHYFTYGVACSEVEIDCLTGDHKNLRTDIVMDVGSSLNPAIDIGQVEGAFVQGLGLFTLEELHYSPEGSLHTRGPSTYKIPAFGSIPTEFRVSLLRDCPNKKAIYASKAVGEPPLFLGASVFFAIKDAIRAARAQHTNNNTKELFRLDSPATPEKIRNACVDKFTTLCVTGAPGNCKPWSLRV

In general, IC50 refers to the concentration needed to halve the response being measured. Lower therefore signals higher potency. With `O=C(O)c1ccc(/C=C2\Oc3cc(OCc4cccc5ccccc45)ccc3C2=O)cc1`, the IC50 in series [1] came to 69 nM.
On the same count and under the same terms, the result for `O=C(O)c1ccc(/C=C2\Oc3cc(O)ccc3C2=O)cc1` reads 68 nM.
For orientation: Ki means a measure of affinity in units of concentration, obtained from inhibition or displacement. As to `COc1ccc(/C=C2\Oc3cc(OCC(=O)O)ccc3C2=O)c(OC)c1`, the Ki was 2.9 nM in series [2] and 34.3 nM in series [3]. In series [1], this compound registered a 50% inhibitory concentration (IC50) of 1270 nM.
For `COC(=O)COc1ccc2c(c1)O/C(=C\c1ccccc1)C2=O`, the “inhibition (INH)” value in series [4] is “Not Active”.
On to `O=C(O)COc1ccc2c(c1)O/C(=C\c1ccccc1)C2=O`, for which the IC50 in series [1] stood at 4470 nM.
With `C=C(C)COc1ccc2c(c1)O/C(=C\c1ccc(C(=O)O)cc1)C2=O`, the inhibition constant Ki in series [2] amounted to 128 nM; in series [3], 1200 nM. The IC50 in series [1] was determined as 46 nM. Also, in series [1] (cattle, 5 min), the “inhibition (INH)” value was “Dose-dependent effect”.
Regarding `COc1ccccc1/C=C1\Oc2cc(OCC(=O)O)ccc2C1=O`, in series [1], the IC50 came out at 1300 nM.
On the same count and under the same terms, with `Cc1ccc(C)c(COc2ccc3c(c2)O/C(=C\c2ccc(C(=O)O)cc2)C3=O)c1` the figure was 62 nM; with `O=C(O)COc1ccc2c(c1)O/C(=C\c1ccccc1C(=O)O)C2=O`, 3840 nM.
In series [1], `O=C(O)COc1ccc2c(c1)O/C(=C\c1ccccc1Cl)C2=O` came in with an IC50 of 1230 nM. This IC50 is about 3.1-fold lower than that of the compound before.
Still for that read-out and setting: with `COc1ccc2c(c1)O/C(=C\c1ccc(C(=O)O)cc1)C2=O` the figure was 80 nM.
For the compound `CC(Oc1ccc2c(c1)O/C(=C\c1ccccc1Cl)C2=O)C(=O)O` (stereo unspecified), the “inhibition (INH)” value in series [4] is on record as “Not Active”.
`O=C(O)COc1ccc2c(c1)O/C(=C\c1ccc(C(=O)O)cc1)C2=O` showed an IC50 in series [1] of 150 nM.
On the same count and under the same terms, with `O=C(O)c1ccc(/C=C2\Oc3cc(OCc4ccccc4)ccc3C2=O)cc1` the figure was 61 nM; with `COc1ccc(/C=C2\Oc3cc(OCC(=O)O)ccc3C2=O)cc1`, 1570 nM.
Still for that read-out and setting: the result for `O=C1/C(=C/c2ccc(O)c(O)c2)Oc2cc(O)ccc21` [SULFURETIN] reads 3100 nM.
